{"source": "patent US20260042762A1", "about": "(Kymera Therapeutics, Inc., priority 2018, published 2026)", "molecular_target": "T1, MerTK (Homo sapiens, UniProt Q12866)", "T1 construct": "endogenous in cells; host or cells: Jurkat cells", "T1 sequence (Q12866 21-999)": "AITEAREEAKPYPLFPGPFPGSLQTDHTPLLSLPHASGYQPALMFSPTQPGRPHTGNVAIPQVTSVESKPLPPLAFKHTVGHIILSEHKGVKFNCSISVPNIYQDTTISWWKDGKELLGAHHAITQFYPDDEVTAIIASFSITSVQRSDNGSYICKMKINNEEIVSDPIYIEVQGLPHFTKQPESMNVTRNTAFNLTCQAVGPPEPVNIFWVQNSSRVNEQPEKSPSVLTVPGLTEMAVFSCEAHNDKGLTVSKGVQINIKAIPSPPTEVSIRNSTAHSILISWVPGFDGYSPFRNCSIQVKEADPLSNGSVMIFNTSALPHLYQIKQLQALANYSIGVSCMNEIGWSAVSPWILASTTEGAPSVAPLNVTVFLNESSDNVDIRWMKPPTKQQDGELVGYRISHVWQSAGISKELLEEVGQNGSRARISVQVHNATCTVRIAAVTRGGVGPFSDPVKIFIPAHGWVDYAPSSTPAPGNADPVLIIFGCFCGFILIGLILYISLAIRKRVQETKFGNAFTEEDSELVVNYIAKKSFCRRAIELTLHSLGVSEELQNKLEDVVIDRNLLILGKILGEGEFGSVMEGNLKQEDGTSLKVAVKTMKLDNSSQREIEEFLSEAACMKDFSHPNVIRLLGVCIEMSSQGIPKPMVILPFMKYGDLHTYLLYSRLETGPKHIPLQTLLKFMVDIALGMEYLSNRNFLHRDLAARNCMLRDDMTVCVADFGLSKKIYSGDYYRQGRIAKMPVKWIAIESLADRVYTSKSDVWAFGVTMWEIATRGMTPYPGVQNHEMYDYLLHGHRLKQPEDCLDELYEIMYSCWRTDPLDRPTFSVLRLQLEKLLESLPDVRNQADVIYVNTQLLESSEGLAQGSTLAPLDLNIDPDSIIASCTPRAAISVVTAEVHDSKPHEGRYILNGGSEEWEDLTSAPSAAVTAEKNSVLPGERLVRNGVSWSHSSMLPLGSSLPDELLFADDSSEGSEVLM", "assay": "MerTk degradation in Jurkat cells (Western blot)", "type": "cell-based", "details": "Jurkat, 4 h, 0.001-1 μM, 4 hour-incubation at 37° C., read-out: Jurkat Max % MerTK Degradation", "procedure,_shortened": "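MerTK degradation was read by near-infrared Western blot, normalized to actin, in BCA-quantified lysates of Jurkat cells exposed to 0.001-1 μM compound for 4 h at 37 °C.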", "data": [{"smiles": "COCC(C)Nc1ncc2c(-c3ccc(CN4CCN(CCCCCNCCN[C@H](C(=O)N5C[C@H](O)C[C@H]5C(=O)NCc5ccc(-c6scnc6C)cc5)C(C)(C)C)CC4)cc3)cn([C@H]3CC[C@H](O)CC3)c2n1", "note": "(stereo partly drawn) [I-3, (2S,4R)-4-Hydroxy-1-[(2S)-2-([2-[(5-[4-[(4-[2-[(1-methoxypropan-2-yl)amino]-7-(trans-4-hydroxycyclohexyl)-7H-pyrrolo[2,3-d]pyrimidin-5-yl]phenyl)methyl]piperazin-1-yl]pentyl)amino]ethyl]amino)-3,3-dimethylbutanoyl]-N-[[4-(4-methyl-1,3-thiazol-5-yl)phenyl]methyl]pyrrolidine-2-carboxamide]", "values": [{"measurement": "Dmax", "value": "< 20", "unit": "%"}]}, {"smiles": "CN1CCN(Cc2ccc(-c3ccc(CO[C@H]4CCC[C@@H]4NC(=O)c4cc(-c5cnn(CCOCCCc6cccc7c6n(C)c(=O)n7C6CCC(=O)NC6=O)c5)cnc4N)cc3)cc2)CC1", "note": "(stereo partly drawn) [I-218, 2-Amino-5-[1-(2-[3-[1-(2,6-dioxopiperidin-3-yl)-3-methyl-2-oxo-1,3-benzodiazol-4-yl]propoxy]ethyl)pyrazol-4-yl]-N-[(1S,2S)-2-([4-[(4-methylpiperazin-1-yl)methyl]-[1,1-biphenyl]-4-yl]methoxy)cyclopentyl]pyridine-3-carboxamide]", "values": [{"measurement": "Dmax", "value": "< 20", "unit": "%"}]}, {"smiles": "CCCCNc1ncc2c(-c3ccc(CN4CCN(CCOCCOCCOCCOCCCc5ccc6c(c5)n(C)c(=O)n6[C@H]5CCC(=O)NC5=O)CC4)cc3)cn(C3CCCCC3)c2n1", "note": "[I-57, 3-(5-[1-[4-([4-[2-(butylamino)-7-cyclohexy1-7H-pyrrolo[2,3-d]pyrimidin-5-yl]phenyl]methyl)piperazin-1-yl]-3,6,9,12-tetraoxapentadecan-15-y1]-3-methyl-2-oxo-2,3-dihydro-1H-1,3-benzodiazol-1-y1)piperidine-2,6-dione]", "values": [{"measurement": "Dmax", "value": "> 50", "unit": "%"}]}, {"smiles": "CCCCNc1ncc2c(-c3ccc(CNCCOCCOCCCc4ccc5c(c4)n(C)c(=O)n5[C@H]4CCC(=O)NC4=O)cc3)cn([C@H]3CC[C@H](O)CC3)c2n1", "note": "[I-45, 3-[5-[3-(2-[2-[([4-[2-(butylamino)-7-[trans-4-hydroxycyclohexy1]-7H-pyrrolo[2,3-d]pyrimidin-5-yl]phenyl]methyl)amino]ethoxy]ethoxy)propyl]-3-methyl-2-oxo-2,3-dihydro-1H-1,3-benzodiazol-1-y1]piperidine-2,6-dione; formic acid]", "values": [{"measurement": "Dmax", "value": "> 50", "unit": "%"}]}, {"smiles": "Cn1c(=O)n([C@H]2CCC(=O)NC2=O)c2ccc(CCCOCCCN3CCN(Cc4ccc(-c5cn([C@H]6CC[C@@](C)(O)CC6)c6nc(NCCC(F)(F)F)ncc56)cc4)CC3)cc21", "note": "[I-141, 3-[3-methyl-2-oxo-5-[3-(3-[4-[(4-[7-[cis-4-hydroxy-4-methylcyclohexyl]-2-[(3,3,3-trifluoropropyl)amino]pyrrolo[2,3-d]pyrimidin-5-y1]phenyl)methyl]piperazin-1-yl]propoxy)propyl]-1,3-benzodiazol-1-yl]piperidine-2,6-dione]", "values": [{"measurement": "Dmax", "value": "> 50", "unit": "%"}]}, {"smiles": "CCC1CN(c2ccc(-c3ccnc(Nc4cc(OC)c(OC)c(OCCOCCOCCOCCOCC(=O)N[C@H](C(=O)N5C[C@H](O)C[C@H]5C(=O)NCc5ccc(-c6scnc6C)cc5)C(C)(C)C)c4)n3)cn2)CCN1", "note": "(stereo partly shown) [I-233]", "values": [{"measurement": "Dmax", "value": "> 50", "unit": "%"}]}, {"smiles": "Cn1c(=O)n([C@H]2CCC(=O)NC2=O)c2cccc(COCCCN3CCN(Cc4ccc(-c5cn([C@H]6CC[C@H](O)CC6)c6nc(NCCC(F)(F)F)ncc56)cc4)CC3)c21", "note": "[I-150, 3-[3-methyl-2-oxo-4-[(3-[4-[(4-[7-[trans-4-hydroxycyclohexyl]-2-[(3,3,3-trifluoropropyl)amino]pyrrolo[2,3-d]pyrimidin-5-yl]phenyl)methyl]piperazin-1-y1]propoxy)methyl]-1,3-benzodiazol-1-yl]piperidine-2,6-dione]", "values": [{"measurement": "Dmax", "value": "> 50", "unit": "%"}]}, {"smiles": "Cn1c(=O)n([C@H]2CCC(=O)NC2=O)c2ccc(CCCOCCCN3CCN(Cc4cccc(-c5cn([C@H]6CC[C@H](O)CC6)c6nc(NCCC(F)(F)F)ncc56)c4)CC3)cc21", "note": "[I-139, 3-[3-methyl-2-oxo-5-[3-(3-[4-[(3-[7-[trans-4-hydroxycyclohexyl]-2-[(3,3,3-trifluoropropyl)amino]pyrrolo[2,3-d]pyrimidin-5-yl]phenyl)methyl]piperazin-1-yl]propoxy)propy1]-1,3-benzodiazol-1-yl]piperidine-2,6-dione]", "values": [{"measurement": "Dmax", "value": "> 50", "unit": "%"}]}, {"smiles": "Cc1ncsc1-c1ccc(CNC(=O)[C@@H]2C[C@@H](O)CN2C(=O)[C@@H](NC(=O)CCCCCN2CCN(Cc3ccc(-c4cn([C@H]5CC[C@H](O)CC5)c5nc(NCCC(F)(F)F)ncc45)cc3)CC2)C(C)(C)C)cc1", "note": "[I-161, (2S,4R)-1-[(2S)-3,3-dimethyl-2-(6-[4-[(4-[7-[trans-4-hydroxycyclohexyl]-2-[(3,3,3-trifluoropropyl)amino]pyrrolo[2,3-d]pyrimidin-5-yl]phenyl)methyl]piperazin-1-yl]hexanamido)butanoyl]-4-hydroxy-N-[[4-(4-methyl-1,3-thiazol-5-yl)phenyl]methyl]pyrrolidine-2-carboxamide]", "values": [{"measurement": "Dmax", "value": "< 20", "unit": "%"}]}, {"smiles": "CCCCNc1ncc2c(-c3ccc(CNCCOCCCc4ccc5c(c4)n(C)c(=O)n5[C@H]4CCC(=O)NC4=O)cc3)cn([C@H]3CC[C@H](O)CC3)c2n1", "note": "[I-54, 3-[5-(3-[2-[([4-[2-(butylamino)-7-[trans-4-hydroxycyclohexyl]-7H-pyrrolo[2,3-d]pyrimidin-5-yl]phenyl]methyl)amino]ethoxy]propyl)-3-methyl-2-oxo-2,3-dihydro-1H-1,3-benzodiazol-1-yl]piperidine-2,6-dione]", "values": [{"measurement": "Dmax", "value": "20 to 50", "unit": "%"}]}, {"smiles": "Cc1ncsc1-c1ccc(CNC(=O)[C@@H]2C[C@@H](O)CN2C(=O)[C@@H](NC(=O)COCCOCCOCCOCCN2CCN(Cc3ccc(-c4cn([C@H]5CC[C@H](O)CC5)c5nc(NCCC(F)(F)F)ncc45)cc3)CC2)C(C)(C)C)cc1", "note": "[I-173, (2S,4R)-1-[(2S)-3,3-dimethyl-2-(14-[4-[(4-[7-[(1r,4r)-4-hydroxycyclohexyl]-2-[(3,3,3-trifluoropropyl)amino]pyrrolo[2,3-d]pyrimidin-5-yl]phenyl)methyl]piperazin-1-yl]-3,6,9,12-tetraoxatetradecanamido)butanoyl]-4-hydroxy-N-[[4-(4-methyl-1,3-thiazol-5-yl)phenyl]methyl]pyrrolidine-2-carboxamide]", "values": [{"measurement": "Dmax", "value": "20 to 50", "unit": "%"}]}, {"smiles": "Cn1c(=O)n([C@H]2CCC(=O)NC2=O)c2cccc(CCCOCCOCCN3CCN(Cc4ccc(-c5cn([C@H]6CC[C@H](O)CC6)c6nc(NCCC(F)(F)F)ncc56)cc4)CC3)c21", "note": "[I-135, 3-(3-methyl-2-oxo-4-[3-[2-(2-[4-[(4-[7-[trans-4-hydroxycyclohexyl]-2-[(3,3,3-trifluoropropyl)amino]pyrrolo[2,3-d]pyrimidin-5-yl]phenyl)methyl]piperazin-1-yl]ethoxy)ethoxy]propyl]-1,3-benzodiazol-1-y1)piperidine-2,6-dione]", "values": [{"measurement": "Dmax", "value": "> 50", "unit": "%"}]}, {"smiles": "Cn1c(=O)n([C@H]2CCC(=O)NC2=O)c2ccc(CCCOCCCN3CCN(Cc4ccc(-c5cn([C@H]6CC[C@](C)(O)CC6)c6nc(NCCC(F)(F)F)ncc56)cc4)CC3)cc21", "note": "[I-142, 3-[3-methyl-2-oxo-5-[3-(3-[4-[(4-[7-[trans-4-hydroxy-4-methylcyclohexyl]-2-[(3,3,3-trifluoropropyl)amino]pyrrolo[2,3-d]pyrimidin-5-yl]phenyl)methyl]piperazin-1-yl]propoxy)propyl]-1,3-benzodiazol-1-yl]piperidine-2,6-dione]", "values": [{"measurement": "Dmax", "value": "> 50", "unit": "%"}]}]}
